Laboratory results from US20210252265A1, “DEVICES AND METHODS FOR ULTRASONIC DELIVERY OF AN AGENT WITHIN AN ORAL CAVITY” (Suono Bio, Inc., priority 2018, published 2021).

System: oral inflammatory lesions in hamster cheek pouches
Test: Treatment of acetic acid-induced oral inflammatory lesions in hamster cheek pouches
Type: in vivo, Golden Syrian hamsters
Details: mean +/- SEM
Method: FIG. 10 is a schematic of the procedure used to test delivery of budesonide to treat or prevent ulcers induced by acetic acid in hamster cheek pouches. 50% acetic acid was administered for 60 seconds. Male Golden Syrian hamsters weighing 100-120 g (Charles River Laboratories, Wilmington, Mass.) were used as received and randomly assigned to experimental groups by the researchers performing the work. To limit pain and distress, all animals received buprenorphine sustained release (SR) (subcutaneous administration, 1 mg/kg body weight, compounded by ZooPharm) just prior to the application of acetic acid for the induction of the oral lesion on day 0. All manipulations occurred with the animal under general anesthesia by inhaled isoflurane. Experimental treatment groups included topical application of budesonide solution with (Budesonide+US) and without (Budesonide) ultrasound. A positive disease control receiving no treatment was also included (Disease). Treatment was administered on day 0 immediately prior to lesion induction using acetic acid. While under general anesthesia, the left cheek pouch was everted, the device was placed on the buccal surface, and the fluid chamber filled with solubilized budesonide solution (0.1%, ˜1 mL). For the Budesonide+US treatment group, ultrasound was simultaneously applied for 3 seconds at an intensity of 5 W/cm2 and a 100% duty cycle. In experimental groups receiving budesonide only (Budesonide), drug was applied as described above without turning the ultrasound on. Immediately following budesonide treatment, oral lesions were induced by topical application of acetic acid (50% solution) as described in previous studies. Briefly, acetic acid was applied to the buccal surface using a liquid holder with a circular area of 5 mm2 for 60 seconds. After acetic acid application, the hamsters were placed back into their cages to recover. On every subsequent day, the cheek pouches were everted to reveal the lesion and an image captured to quantify lesion size. Treatments were then applied as described above. Lesion size was measured using ImageJ (National Institutes of Health, Bethesda, Md.). All data analysis was performed using GraphPad Prism software (GraphPad Software, Inc., La Jolla, Calif., USA). Two-group comparisons were made using Student's unpaired t-test using Welch's correction. Multiple comparisons were made using one-way ANOVA followed by Tukey's post-test. For all comparisons, p<0.05 was considered statistically significant. Data are reported as mean±standard error of the mean (SEM) except for temperature measurements that are reported as mean±standard deviation (SD).

Q: Which oral lesion size (24 hours post-acetic acid induced injury, budesonide solution 0.1% with 40 kHz ultrasound 3 seconds, 5 W/cm2) does the source give for `CCCC1O[C@@H]2C[C@H]3[C@@H]4CCC5=CC(=O)C=C[C@]5(C)[C@H]4[C@@H](O)C[C@]3(C)[C@]2(C(=O)CO)O1` (stereo partly shown) [Budesonide] here?
A: The oral lesion size was 15.7+/−1.3 mm2.

Q: And the oral lesion size (24 hours post-acetic acid induced injury, topical budesonide solution 0.1% without ultrasound)?
A: The oral lesion size was 20.3+/−1.1 mm2.

Q: What about the oral lesion size (48 hours after acetic acid-induced injury, budesonide with ultrasound) of the same molecule?
A: The oral lesion size was 18.71+/−2.3 mm2.

Q: What about the oral lesion size (48 hours after acetic acid-induced injury, topical budesonide without ultrasound) of the same molecule?
A: The oral lesion size was 25.5+/−1.6 mm2.
